14 compounds from patent US6022497A, “Photochromic six-membered heterocyclic-fused naphthopyrans” (PPG Industries Ohio, Inc., priority 1999, dated 2000) can be followed below.

Structures are written as SMILES.

Common to all, as to assay type: physicochemical
Data set [1] is described as follows: photochromic response of test squares on an optical bench (sensitivity, saturation, bleach rate). The conditions noted are these: for ΔOD @ Saturation: UV exposure continued for 15 minutes; for ΔOD @ Saturation / Sensitivity ΔOD/min: 72° F. (22.2° C.); for Sensitivity ΔOD/min: first five (5) seconds of UV exposure, expressed per minute; for Bleach Rate T 1/2: time to one half the highest absorbance at room temperature (72° F., 22.2° C.) after removal of activating light. Here is the method: (§1) Testing was done with the photochromic compounds prepared in Examples 1-14 in the following manner. A quantity of each photochromic compound, except Compounds 13A and 14, calculated to yield a 1.5×10^-3 molal solution was added to a flask containing 50 grams of a monomer blend of 4 parts ethoxylated bisphenol A dimethacrylate (BPA 2EO DMA), 1 part poly(ethylene glycol) 600 dimethacrylate, and 0.033 weight percent 2,2'-azobis(2-methyl propionitrile) (AIBN). Each photochromic compound was dissolved into the monomer blend by stirring and gentle heating. After a clear solution was obtained, it was poured into a flat sheet mold having the interior dimensions of 2.2 mm×6 inches (15.24 cm)×6 inches (15.24 cm). The mold was sealed and placed in a horizontal air flow, programmable oven programmed to increase the temperature from 40° C. to 95° C. over a 5 hour interval, hold the temperature at 95° C. for 3 hours, lower it to 60° C. over a 2 hour interval and then hold at 60° C. for 16 hours. After the mold was opened, the polymer sheet was cut using a diamond blade saw into 2 inch (5.1 centimeters) test squares.
The photochromic test squares prepared in Part A were tested for photochromic response on an optical bench. Prior to testing on the optical bench, the photochromic test squares were exposed to 365 nanometer ultraviolet light for about 15 minutes to activate the photochromic compounds and then placed in a 76° C. oven for about 15 minutes to bleach or inactivate the photochromic compounds. The test squares were then cooled to room temperature, exposed to fluorescent room lighting for at least 2 hours and then kept covered for at least 2 hours prior to testing on an optical bench maintained at 72° F. (22.2° C.). The bench was fitted with a 150 watt Xenon arc lamp, a remote controlled shutter, a copper sulfate bath acting as a heat sink for the arc lamp, a Schott WG-320 nm cut-off filter which removes short wavelength radiation; neutral density filter(s) and a sample holder in which the square to be tested was inserted. The power output of the optical bench, i.e., the dosage of light that the sample lens would be exposed to, was calibrated with a photochromic test square used as a reference standard. […] The UV-A detector was placed into the sample holder and the light output was measured. Adjustments to the power output were made by increasing or decreasing the lamp wattage or by adding or removing neutral density filters in the light path.
A monitoring, collimated beam of light from a tungsten lamp was passed through the square at a small angle (approximately 30°) normal to the square. After passing through the square, the light from the tungsten lamp was directed to a detector through Spectral Energy Corp. GM-200 monochromator set at the previously determined visible lambda max of the photochromic compound being measured. The output signals from the detector were processed by a radiometer.
Change in optical density (ΔOD) was determined by inserting a test square in the bleached state into the sample holder, adjusting the transmittance scale to 100%, opening the shutter from the Xenon lamp to provide ultraviolet radiation to change the test square from the bleached state to an activated (i.e., darkened) state, measuring the transmittance in the activated state, and calculating the change in optical density according to the formula: ΔOD=log(100/% Ta), where % Ta is the percent transmittance in the activated state and the logarithm is to the base 10.
The ΔOD/min, which represents the sensitivity of the photochromic compound's response to UV light, was measured over the first five (5) seconds of UV exposure, then expressed on a per minute basis. The saturation optical density (ΔOD@ Saturation) was taken under identical conditions as the ΔOD/min, except UV exposure was continued for 15 minutes. […]

Data set [2] in a line: lambda max (Vis) of photochromic test square polymerizates, UV-Visible spectrophotometer. The conditions noted are these: activated (colored) form in polymer test square (BPA 2EO DMA / poly(ethylene glycol) 600 dimethacrylate), 1.5×10^-3 molal. Here is the method: as §1
The ΔOD/min, which represents the sensitivity of the photochromic compound's response to UV light, was measured over the first five (5) seconds of UV exposure, then expressed on a per minute basis. The saturation optical density (ΔOD@ Saturation) was taken under identical conditions as the ΔOD/min, except UV exposure was continued for 15 minutes. The lambda max (Vis) is the wavelength in nanometers (nm) in the visible spectrum at which the maximum absorption of the activated (colored) form of the photochromic compound in a test square occurs. The lambda max (Vis) wavelength was determined by testing the photochromic test square polymerizates of Part A in a Varian Cary 3 UV-Visible spectrophotometer. The Bleach Rate (T 1/2) is the time interval in seconds for the absorbance of the activated form of the photochromic compound in the test squares to reach one half the highest absorbance at room temperature (72° F., 22.2° C.) after removal of the source of activating light.

The nature of data set [3]: lambda max (Vis) of compound in solution, UV/Visible spectrophotometer. The following applies: solution in diethylene glycol dimethyl ether, approximately 0.5 milligram per milliliter. Here is the method: The compound of Example 13 identified as 13A and the compound of Example 14 were dissolved in diethylene glycol dimethyl ether. The concentration of the resulting solution was approximately 0.5 milligram per milliliter. Each solution was tested in a UV/Visible Spectrophotometer to determine the lambda max (Vis).

Regarding `Cn1c(=O)oc2c(c3c(c4ccccc42)OC(c2ccccc2)(c2ccccc2)C=C3)c1=O` [Example 9, 3-methyl-7,7-diphenyl-2,4-dioxo-2,3,4,7-tetrahydro[1,3]oxazino[5',6':3,4]naphtho[1,2-b]pyran], in data set [1], the “ΔOD @ Saturation” value was 0.40, the “Sensitivity ΔOD/min” value is recorded as 0.41 ΔOD/min and the “Bleach Rate T 1/2” value is 0.85 min. Besides, the “lambda max (Vis)” value in data set [2] is on record as 469 nanometers.

On to `C=C(C)C(=O)OCCn1c(=O)oc2c(c3c(c4ccccc42)OC(c2ccccc2)(c2ccccc2)C=C3)c1=O` [Example 12, 3-(2-methacryloyloxyethyl)-7,7-diphenyl-2,4-dioxo-2,3,4,7-tetrahydro[1,3]oxazino[5',6':3,4]naphtho[1,2-b]pyran], for which, in data set [1], the “ΔOD @ Saturation” value is on record as 0.32, the “Sensitivity ΔOD/min” value is reported as 0.26 ΔOD/min and the “Bleach Rate T 1/2” value was found to be 2.33 min. In data set [2], the “lambda max (Vis)” value was determined as 467 nanometers.

`COc1ccc(C2(c3ccc(OC)cc3)C=Cc3c4c(c5ccccc5c3O2)OCOC4=O)cc1` [Example 2, 7,7-di(4-methoxyphenyl)-4-oxo-4H-7H-[1,3]dioxino[5',4':3,4]naphtho[1,2-b]pyran]: in data set [1], the “ΔOD @ Saturation” value worked out at 0.67, the “Sensitivity ΔOD/min” value is listed as 0.74 ΔOD/min and the “Bleach Rate T 1/2” value came to 0.85 min. In data set [2], the “lambda max (Vis)” value turned out to be 510 nanometers.

Take `O=C1OCOc2c1c1c(c3ccccc23)OC(c2ccccc2)(c2ccccc2)C=C1` [Example 1, 7,7-diphenyl-4-oxo-4H-7H-[1,3]dioxino[5'4':3,4]naphtho[1,2-b]pyran]: in data set [1], the “ΔOD @ Saturation” value is 1.89, the “Sensitivity ΔOD/min” value was 0.76 ΔOD/min and the “Bleach Rate T 1/2” value was 3.67 min. In addition, in data set [2], the “lambda max (Vis)” value is reported as 472 nanometers.

In the case of `CCC1OC(=O)c2c3c(c4ccccc4c2O1)OC(c1ccccc1)(c1ccccc1)C=C3` (centres unmarked) [Example 4, 7,7-diphenyl-2-ethyl-4-oxo-4H-7H-[1,3]dioxino[5',4':3,4]naphtho[1,2-b]pyran], in data set [1], the “ΔOD @ Saturation” value amounted to 1.71, the “Sensitivity ΔOD/min” value is listed as 0.67 ΔOD/min and the “Bleach Rate T 1/2” value is 4.13 min. In addition, the “lambda max (Vis)” value in data set [2] amounted to 474 nanometers.

With `CC(C)CC1OC(=O)c2c3c(c4ccccc4c2O1)OC(c1ccccc1)(c1ccccc1)C=C3` (centres unmarked) [Example 6, 7,7-diphenyl-2-(2-methylpropyl)-4-oxo-4H-7H-[1,3]dioxino[5',4':3,4]naphtho[1,2-b]pyran], in data set [1], the “ΔOD @ Saturation” value is reported as 1.72, the “Sensitivity ΔOD/min” value is 0.64 ΔOD/min and the “Bleach Rate T 1/2” value worked out at 4 min. Further, in data set [2], the “lambda max (Vis)” value was determined as 475 nanometers.

In the case of `CCCCCCn1c(=O)oc2c(c3c(c4ccccc42)OC(c2ccccc2)(c2ccccc2)C=C3)c1=O` [Example 11, 3-hexyl-7,7-diphenyl-2,4-dioxo-2,3,4,7-tetrahydro[1,3]oxazino[5',6':3,4]naphtho[1,2-b]pyran], in data set [1], the “ΔOD @ Saturation” value came to 0.41, the “Sensitivity ΔOD/min” value is 0.46 ΔOD/min and the “Bleach Rate T 1/2” value came out at 0.883 min. Further, in data set [2], the “lambda max (Vis)” value came out at 471 nanometers.

For the compound `CC1(C)Cc2c(c3c(c4ccccc24)OC(c2ccccc2)(c2ccccc2)C=C3)C(=O)O1` [Example 14], the “lambda max (Vis)” value in data set [3] was 460 nanometers.

Consider `CC(c1ccccc1)C1OC(=O)c2c3c(c4ccccc4c2O1)OC(c1ccccc1)(c1ccccc1)C=C3` (centres unmarked) [Example 8, 7,7-diphenyl-2-(1-phenylethyl)-4-oxo-4H-7H-[1,3]dioxino[5',4':3,4]naphtho[1,2-b]pyran], for which, in data set [1], the “ΔOD @ Saturation” value turned out to be 1.58, the “Sensitivity ΔOD/min” value is given as 0.63 ΔOD/min and the “Bleach Rate T 1/2” value was determined as 4.18 min. In addition, the “lambda max (Vis)” value in data set [2] is 475 nanometers.

As to `CCCCCC1OC(=O)c2c3c(c4ccccc4c2O1)OC(c1ccccc1)(c1ccc(OC)cc1)C=C3` (centres unmarked) [Example 3, 7-(4-methoxyphenyl)-7-phenyl-2-pentyl-4-oxo-4H-7H-[1,3]dioxino[5',4':3,4]naphtho[1,2-b]pyran], in data set [1], the “ΔOD @ Saturation” value turned out to be 1.28, the “Sensitivity ΔOD/min” value is 0.75 ΔOD/min and the “Bleach Rate T 1/2” value was 1.95 min. In addition, the “lambda max (Vis)” value in data set [2] was found to be 496 nanometers.

`O=C1OC(c2ccccc2)Oc2c1c1c(c3ccccc23)OC(c2ccccc2)(c2ccccc2)C=C1` (centres unmarked) [Example 7, 2,7,7-triphenyl-4-oxo-4H-7H-[1,3]dioxino[5',4':3,4]naphtho[1,2-b]pyran]: in data set [1], the “ΔOD @ Saturation” value turned out to be 1.46, the “Sensitivity ΔOD/min” value was 0.60 ΔOD/min and the “Bleach Rate T 1/2” value came to 4.13 min. In addition, the “lambda max (Vis)” value in data set [2] turned out to be 476 nanometers.

Consider `CCCCCC1OC(=O)c2c3c(c4ccccc4c2O1)OC(c1ccccc1)(c1ccccc1)C=C3` (centres unmarked) [Example 5, 7,7-diphenyl-2-pentyl-4-oxo-4H-7H-[1,3]dioxino[5',4':3,4]naphtho[1,2-b]pyran], for which, in data set [1], the “ΔOD @ Saturation” value came out at 1.74, the “Sensitivity ΔOD/min” value was 0.67 ΔOD/min and the “Bleach Rate T 1/2” value is 4.23 min. The “lambda max (Vis)” value in data set [2] worked out at 478 nanometers.

With `O=C1OC(c2ccccc2)(c2ccccc2)Nc2c1c1c(c3ccccc23)OC(c2ccccc2)(c2ccccc2)C=C1` [Example 13A, 2,2,7,7-tetraphenyl-4-oxo-2,3,4,7-tetrahydro-1H-[1,3]oxazino[5',4':3,4]naphtho[1,2-b]pyran], the “lambda max (Vis)” value in data set [3] was found to be 471 nanometers.

Regarding `CCOC(=O)CCn1c(=O)oc2c(c3c(c4ccccc42)OC(c2ccccc2)(c2ccccc2)C=C3)c1=O` [Example 10, 3-(2-ethoxycarbonylethyl)-7,7-diphenyl-2,4-dioxo-2,3,4,7-tetrahydro[1,3]oxazino[5',6':3,4]naphtho[1,2-b]pyran], in data set [1], the “ΔOD @ Saturation” value is 0.38, the “Sensitivity ΔOD/min” value is listed as 0.44 ΔOD/min and the “Bleach Rate T 1/2” value stood at 0.7 min. Besides, the “lambda max (Vis)” value in data set [2] amounted to 468 nanometers.
